Data from patent US10899744B2, “Crystalline form of compound suppressing protein kinase activity, and application thereof” (XCOVERY HOLDINGS, INC., priority 2016, dated 2021).
Values after ≈ are worked out from the molar mass of the structure shown. Where a name gives a salt, the structure may show the parent alone.

Key:
[1] = Stability of the crystalline form; type: physicochemical
ALK (Fl 174L)-EML4 = biological target: T1, ALK (Fl 174L)-EML4 (Homo sapiens, UniProt Q9UM73, F1174L); test: Biochemical kinase activity (Reaction Biology Corp)
T1 construct: EML4 part (fusion partner); purchased Reaction Biology Corp (contract testing)
Method: (§1) Biochemical kinase activity of the compound as shown in formula I was tested by Reaction Biology Corp located in Malvern, Pa., USA. The testing rules is described in Nat Biotechnol.

ALK (T1151-L1152insT) = biological target: T2, ALK (T1151-L1152insT) (Homo sapiens, UniProt Q9UM73, INS1151T); test: as above
T2 construct: purchased Reaction Biology Corp (contract testing)
Method: as §1

ALK (R1275Q) = biological target: T3, ALK (R1275Q) (Homo sapiens, UniProt Q9UM73, R1275Q); test: as above
T3 construct: purchased Reaction Biology Corp (contract testing)
T3 sequence (Q9UM73 19-1620 R1275Q): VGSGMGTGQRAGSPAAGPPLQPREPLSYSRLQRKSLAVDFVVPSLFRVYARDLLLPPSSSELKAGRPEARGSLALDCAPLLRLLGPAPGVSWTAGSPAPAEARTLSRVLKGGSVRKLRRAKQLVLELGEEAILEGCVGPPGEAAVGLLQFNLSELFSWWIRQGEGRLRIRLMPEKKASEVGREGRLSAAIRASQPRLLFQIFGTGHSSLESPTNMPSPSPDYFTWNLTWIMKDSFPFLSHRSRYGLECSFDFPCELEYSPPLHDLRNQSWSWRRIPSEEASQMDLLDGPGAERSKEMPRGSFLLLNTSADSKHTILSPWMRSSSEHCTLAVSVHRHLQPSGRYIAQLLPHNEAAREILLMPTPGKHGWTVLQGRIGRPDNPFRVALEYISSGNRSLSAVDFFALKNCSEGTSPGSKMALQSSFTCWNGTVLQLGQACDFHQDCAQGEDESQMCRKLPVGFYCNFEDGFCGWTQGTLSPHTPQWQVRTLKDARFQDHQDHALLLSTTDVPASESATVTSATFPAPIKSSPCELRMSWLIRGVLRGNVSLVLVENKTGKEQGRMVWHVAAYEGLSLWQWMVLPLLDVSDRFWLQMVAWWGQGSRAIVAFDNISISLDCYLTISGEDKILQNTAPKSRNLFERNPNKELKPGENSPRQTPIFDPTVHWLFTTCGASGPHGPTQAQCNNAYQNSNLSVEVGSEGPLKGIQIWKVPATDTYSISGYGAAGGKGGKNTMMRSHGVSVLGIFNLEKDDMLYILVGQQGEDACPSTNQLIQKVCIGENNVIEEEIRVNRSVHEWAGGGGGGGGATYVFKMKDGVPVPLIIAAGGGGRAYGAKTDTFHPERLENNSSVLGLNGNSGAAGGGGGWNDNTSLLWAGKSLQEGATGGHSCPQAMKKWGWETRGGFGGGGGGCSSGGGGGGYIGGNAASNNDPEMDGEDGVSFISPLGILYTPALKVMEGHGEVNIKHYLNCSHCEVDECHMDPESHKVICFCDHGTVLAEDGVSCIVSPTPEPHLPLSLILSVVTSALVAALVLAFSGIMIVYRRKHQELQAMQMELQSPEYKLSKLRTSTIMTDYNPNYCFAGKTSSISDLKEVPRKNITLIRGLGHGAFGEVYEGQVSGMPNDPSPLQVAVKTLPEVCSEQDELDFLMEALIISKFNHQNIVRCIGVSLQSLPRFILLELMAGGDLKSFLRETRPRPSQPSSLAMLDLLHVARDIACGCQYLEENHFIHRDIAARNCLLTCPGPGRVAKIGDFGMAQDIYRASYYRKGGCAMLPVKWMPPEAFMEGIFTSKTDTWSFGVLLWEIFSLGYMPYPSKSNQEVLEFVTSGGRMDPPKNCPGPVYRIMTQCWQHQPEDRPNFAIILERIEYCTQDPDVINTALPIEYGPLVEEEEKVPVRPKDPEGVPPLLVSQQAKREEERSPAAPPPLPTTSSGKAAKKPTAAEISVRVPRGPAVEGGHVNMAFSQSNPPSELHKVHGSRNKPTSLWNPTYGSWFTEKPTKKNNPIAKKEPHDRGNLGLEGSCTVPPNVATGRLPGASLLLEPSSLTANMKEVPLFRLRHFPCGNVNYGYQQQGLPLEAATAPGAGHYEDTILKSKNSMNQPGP
Method: as §1

ROS1-GOPC = biological target: T4, ROS1-GOPC (Homo sapiens, UniProt P08922); test: as above
T4 construct: fused on or other part: Q9HD26 (Golgi-associated PDZ and coiled-coil motif-containing protein)
Method: as §1

ALK(L1152R) = biological target: T5, ALK(L1152R) (Homo sapiens, UniProt Q9UM73, L1152R); test: as above
T5 construct: purchased Reaction Biology Corp (contract testing)
Method: as §1

TRKA-TPM3 = biological target: T6, TRKA-TPM3 (Homo sapiens, UniProt P04629); test: as above
T6 construct: fused on or other part: P06753 (Tropomyosin alpha-3 chain)
T6 sequence (P04629 510-796 limits assumed): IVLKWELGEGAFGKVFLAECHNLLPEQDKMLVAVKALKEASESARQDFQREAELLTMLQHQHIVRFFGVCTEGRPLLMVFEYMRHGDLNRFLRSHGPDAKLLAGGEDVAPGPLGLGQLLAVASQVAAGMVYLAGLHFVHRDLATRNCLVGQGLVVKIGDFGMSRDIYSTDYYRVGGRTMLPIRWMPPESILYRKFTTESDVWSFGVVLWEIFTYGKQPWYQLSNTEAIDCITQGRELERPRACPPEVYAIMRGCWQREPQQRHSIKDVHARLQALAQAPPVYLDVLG
Method: as §1

EPHB1 = biological target: T7, EPHB1 (Homo sapiens, UniProt P54762); test: as above
T7 construct: purchased Reaction Biology Corp (contract testing)
Method: as §1

ALK (S1206R) = biological target: T8, ALK (S1206R) (Homo sapiens, UniProt Q9UM73, S1206R); test: as above
T8 construct: purchased Reaction Biology Corp (contract testing)
T8 sequence (Q9UM73 19-1620 S1206R): as the sequence (Q9UM73 19-1620 R1275Q) above, with S1188R, Q1257R counted along it
Method: as §1

TRKA-TPR = biological target: T9, TRKA-TPR (Homo sapiens, UniProt P04629); test: as above
T9 construct: fused on or other part: P12270 (Nucleoprotein TPR)
Method: as §1

ALK (Fl 174L)-NPM1 = biological target: T10, ALK (Fl 174L)-NPM1 (Homo sapiens, UniProt Q9UM73, F1174L); test: as above
T10 construct: NPM1 part (fusion partner); purchased Reaction Biology Corp (contract testing); the other entry of the earlier key: NPM1 (P06748, Nucleophosmin)
Method: as §1

TRKA-TFG (TRK-T3) = biological target: T11, TRKA-TFG (TRK-T3) (Homo sapiens, UniProt P04629); test: as above
T11 construct: TFG (fusion partner, UniProt Q92734); purchased Reaction Biology Corp; the other entry of the earlier key: TFG (Q92734, Protein TFG)
Method: as §1

c-MET = biological target: T12, c-MET (Homo sapiens, UniProt P08581); test: as above
T12 construct: purchased Reaction Biology Corp (contract testing)
Method: as §1

TRKA = biological target: T13, TRKA (Homo sapiens, UniProt P04629); test: as above
T13 construct: purchased Reaction Biology Corp (contract testing)
T13 sequence (P04629 33-796): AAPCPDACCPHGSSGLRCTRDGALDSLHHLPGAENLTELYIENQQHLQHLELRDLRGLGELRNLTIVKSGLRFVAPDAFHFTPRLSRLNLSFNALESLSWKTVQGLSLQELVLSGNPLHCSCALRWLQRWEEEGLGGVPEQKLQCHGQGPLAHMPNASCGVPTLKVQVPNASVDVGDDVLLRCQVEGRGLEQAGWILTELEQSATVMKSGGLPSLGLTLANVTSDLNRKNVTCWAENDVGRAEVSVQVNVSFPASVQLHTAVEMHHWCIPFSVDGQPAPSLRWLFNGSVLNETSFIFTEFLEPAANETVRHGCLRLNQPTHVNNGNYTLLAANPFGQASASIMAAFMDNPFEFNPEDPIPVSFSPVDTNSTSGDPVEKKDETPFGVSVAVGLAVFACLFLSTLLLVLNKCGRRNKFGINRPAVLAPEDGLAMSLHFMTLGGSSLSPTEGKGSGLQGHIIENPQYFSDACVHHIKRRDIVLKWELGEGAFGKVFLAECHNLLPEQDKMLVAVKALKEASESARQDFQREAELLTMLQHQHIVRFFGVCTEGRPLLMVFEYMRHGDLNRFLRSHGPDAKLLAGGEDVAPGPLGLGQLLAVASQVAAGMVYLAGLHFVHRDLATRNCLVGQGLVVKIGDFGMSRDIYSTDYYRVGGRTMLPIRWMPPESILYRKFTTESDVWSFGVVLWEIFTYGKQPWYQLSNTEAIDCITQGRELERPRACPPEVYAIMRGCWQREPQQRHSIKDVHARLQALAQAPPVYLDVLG
Method: as §1

ROS/ROS1 = biological target: T14, ROS/ROS1 (Homo sapiens, UniProt P08922); test: as above
T14 construct: purchased Reaction Biology Corp (contract testing)
Method: as §1

TRKB = biological target: T15, TRKB (Homo sapiens, UniProt Q16620); test: as above
T15 construct: purchased Reaction Biology Corp
Method: as §1

TRKC = biological target: T16, TRKC (Homo sapiens, UniProt Q16288); test: as above
T16 construct: purchased Reaction Biology Corp
Method: as §1

ALK (C1156Y) = biological target: T17, ALK (C1156Y) (Homo sapiens, UniProt Q9UM73, C1156Y); test: as above
T17 construct: purchased Reaction Biology Corp (contract testing)
Method: as §1

ALK(L1196M) = biological target: T18, ALK(L1196M) (Homo sapiens, UniProt Q9UM73, L1196M); test: as above
T18 construct: purchased Reaction Biology Corp (contract testing)
Method: as §1

ALK (F1174S) = biological target: T19, ALK (F1174S) (Homo sapiens, UniProt Q9UM73, F1174S); test: as above
T19 construct: purchased Reaction Biology Corp (contract testing)
Method: as §1

ALK-TPM3 = biological target: T20, ALK-TPM3 (Homo sapiens, UniProt Q9UM73); test: as above
T20 construct: fused on or other part: P06753 (Tropomyosin alpha-3 chain)
T20 sequence (Q9UM73 1116-1392 limits assumed): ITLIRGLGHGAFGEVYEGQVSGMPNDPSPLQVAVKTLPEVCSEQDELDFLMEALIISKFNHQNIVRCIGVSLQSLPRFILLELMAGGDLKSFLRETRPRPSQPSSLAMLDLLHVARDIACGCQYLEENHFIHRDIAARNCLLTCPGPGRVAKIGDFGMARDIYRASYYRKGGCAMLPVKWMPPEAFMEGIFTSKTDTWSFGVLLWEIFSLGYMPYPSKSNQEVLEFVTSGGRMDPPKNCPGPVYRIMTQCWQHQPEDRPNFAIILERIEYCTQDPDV
Method: as §1

ALK (G1269S) = biological target: T21, ALK (G1269S) (Homo sapiens, UniProt Q9UM73, G1269S); test: as above
T21 construct: purchased Reaction Biology Corp (contract testing)
Method: as §1

ALK-TFG = biological target: T22, ALK-TFG (Homo sapiens, UniProt Q9UM73); test: as above
T22 construct: fused on or other part: Q92734 (Protein TFG)
T22 sequence (Q9UM73 1058-1620 limits assumed): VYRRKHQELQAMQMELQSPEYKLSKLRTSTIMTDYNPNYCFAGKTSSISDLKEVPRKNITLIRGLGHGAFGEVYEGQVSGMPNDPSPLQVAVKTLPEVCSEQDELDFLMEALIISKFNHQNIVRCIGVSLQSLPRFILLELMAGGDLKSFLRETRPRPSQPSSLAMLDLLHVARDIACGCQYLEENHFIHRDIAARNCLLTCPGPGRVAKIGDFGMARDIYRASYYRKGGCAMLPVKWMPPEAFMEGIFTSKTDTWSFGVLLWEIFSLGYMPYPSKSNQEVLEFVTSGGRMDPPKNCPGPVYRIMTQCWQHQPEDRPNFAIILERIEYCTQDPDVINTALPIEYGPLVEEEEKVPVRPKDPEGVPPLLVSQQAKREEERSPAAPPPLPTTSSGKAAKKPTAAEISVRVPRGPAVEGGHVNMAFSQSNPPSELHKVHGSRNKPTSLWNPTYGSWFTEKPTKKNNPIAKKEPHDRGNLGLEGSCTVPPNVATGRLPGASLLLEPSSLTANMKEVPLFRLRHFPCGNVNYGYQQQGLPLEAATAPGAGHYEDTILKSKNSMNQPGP
Method: as §1

ALK-NPM1 = biological target: T23, ALK-NPM1 (Homo sapiens, UniProt Q9UM73); test: as above
T23 construct: NPM1 part (fusion partner); purchased Reaction Biology Corp (contract testing); the other entry of the earlier key: NPM1 (P06748, Nucleophosmin)
Method: as §1

NEK1 = biological target: T24, NEK1 (Homo sapiens, UniProt Q96PY6); test: as above
T24 construct: purchased Reaction Biology Corp (contract testing)
Method: as §1

EPHA2 = biological target: T25, EPHA2 (Homo sapiens, UniProt P29317); test: as above
T25 construct: purchased Reaction Biology Corp (contract testing)
Method: as §1

ALK = biological target: T26, ALK (Homo sapiens, UniProt Q9UM73); test: as above
T26 construct: purchased Reaction Biology Corp (contract testing)
Method: as §1

ALK (G1269A) = biological target: T27, ALK (G1269A) (Homo sapiens, UniProt Q9UM73, G1269A); test: as above
T27 construct: purchased Reaction Biology Corp (contract testing)
Method: as §1

EPHA1 = biological target: T28, EPHA1 (Homo sapiens, UniProt P21709); test: as above
T28 construct: purchased Reaction Biology Corp (contract testing)
Method: as §1

ALK (T1151M) = biological target: T29, ALK (T1151M) (Homo sapiens, UniProt Q9UM73, T1151M); test: as above
T29 construct: purchased Reaction Biology Corp (contract testing)
Method: as §1

ALK (F1174L) = biological target: T30, ALK (F1174L) (Homo sapiens, UniProt Q9UM73, F1174L); test: as above
T30 construct: purchased Reaction Biology Corp (contract testing)
Method: as §1

ALK (G1202R) = biological target: T31, ALK (G1202R) (Homo sapiens, UniProt Q9UM73, G1202R); test: as above
T31 construct: purchased Reaction Biology Corp (contract testing)
Method: as §1

CSF1R (FMS) = biological target: T32, CSF1R (FMS) (Homo sapiens, UniProt P07333); test: as above
T32 construct: purchased Reaction Biology Corp (contract testing)
Method: as §1

[2] = Assay of Dynamic Vapor Sorption (DVS); type: physicochemical; conditions: for weight change: range of 0% to 80% RH
[3] = cited from earlier work
[4] = Solubility determination in water; type: physicochemical; conditions: room temperature
[5] = Pharmacokinetics in female SD rats, intragastric gavage; type: in vivo; conditions: PO
Method: 6 female SD rats were divided into two groups, three rats in each group. 50 mg/kg of Crystalline form A of the compound of formula I and free base amorphis of the compound of formula I were administered by intragastric gavage at single dose to each female SD rat respectively; the blood samples were collected through the jugular vein at the specified time, and the plasma from these samples was separated and stored in the refrigerator at −80° C.
For the above plasma from these samples, protein was precipitated using acetonitrile, the supernatant was diluted 3-fold by water, then took 5 μL of the solution for LC-MS/MS test, and data is shown in Table 9: […]

[6] = Sprague-Dawley, rat, 50 mg/kg single dose, plasma

With `C[C@@H]1CN(C(=O)c2ccc(NC(=O)c3cc(O[C@H](C)c4c(Cl)ccc(F)c4Cl)c(N)nn3)cc2)C[C@H](C)N1` [Crystalline form E] the “change in crystalline form” value ([1]; placed in a desiccator for 2 days) was “transformed into Crystalline form A”.
With `C[C@@H]1CN(C(=O)c2ccc(NC(=O)c3cc(O[C@H](C)c4c(Cl)ccc(F)c4Cl)c(N)nn3)cc2)C[C@H](C)N1` [compound of Formula I, {5-[(1R)-1-(2,6-dichloro-3-fluorophenyl)ethoxy]-6-aminopyridazin-3-ly}-N-{4-[((3S,5R)-3,5-dimethylpiperazinyl)carbonyl]phenyl} carboxamide hydrochloride] the IC50 (ALK (Fl 174L)-EML4) was 0.53 nM, the IC50 (ALK (T1151-L1152insT)) was 0.26 nM and the IC50 (ALK (R1275Q)) was 1.06 nM. For the same molecule, the IC50 (ROS1-GOPC) was 0.98 nM, the IC50 (ALK(L1152R)) was 0.58 nM and the IC50 (TRKA-TPM3) was 0.62 nM. For the same molecule, the IC50 (EPHB1) was 8.59 nM, the IC50 (ALK (S1206R)) was 0.17 nM and the IC50 (TRKA-TPR) was 1.22 nM. It also gave an IC50 (ALK (Fl 174L)-NPM1) of 0.47 nM, an IC50 (TRKA-TFG (TRK-T3)) of 0.46 nM and an IC50 (c-MET) of 9.59 nM. The IC50 (TRKA) was 8 nM, the IC50 (ROS/ROS1) was 1.41 nM and the IC50 (TRKB) was 3.39 nM. For the same molecule, the IC50 (TRKC) was 0.46 nM, the IC50 (ALK (C1156Y)) was 0.28 nM and the IC50 (ALK(L1196M)) was 0.32 nM. The IC50 (ALK (F1174S)) was 0.17 nM, the IC50 (ALK-TPM3) was 0.21 nM and the IC50 (ALK (G1269S)) was 1.39 nM. For the same molecule, the IC50 (ALK-TFG) was 0.73 nM, the IC50 (ALK-NPM1) was 0.68 nM and the IC50 (NEK1) was 6.08 nM. It also gave an IC50 (EPHA2) of 1.14 nM, an IC50 (ALK) of 0.16 nM and an IC50 (ALK (G1269A)) of 1.14 nM. It also gave an IC50 (EPHA1) of 6.22 nM, an IC50 (ALK (T1151M)) of 0.13 nM and an IC50 (ALK (F1174L)) of 0.16 nM. The IC50 (ALK (G1202R)) was 3.83 nM and the IC50 (CSF1R (FMS)) was 13.4 nM.
For `C[C@@H]1CN(C(=O)c2ccc(NC(=O)c3cc(O[C@H](C)c4c(Cl)ccc(F)c4Cl)c(N)nn3)cc2)C[C@H](C)N1` [Amorphis], the weight change [2] was “about 15.7%” and the hygroscopicity judgment ([2]; weight change 0-80% RH) was “extremely hygroscopic”.
For `C[C@@H](Oc1cc(-c2cnn(C3CCNCC3)c2)cnc1N)c1c(Cl)ccc(F)c1Cl` [crizotinib, Crizotinib], the disease control ([3]; Phase I clinical trial) is listed as 90%, the “objective response rate (ORR)” value ([3]; Phase I clinical trial) is listed as 64% and the “time of treatment until resistance and disease progression” value ([3]; most patients) is listed as 6-18 months.
For `C[C@@H]1CN(C(=O)c2ccc(NC(=O)c3cc(O[C@H](C)c4c(Cl)ccc(F)c4Cl)c(N)nn3)cc2)C[C@H](C)N1` [Crystalline form C], the “change in crystalline form” value ([1]; dried in vacuum at room temperature overnight) was “almost completely converted to Crystalline form A”.
In the case of `C[C@@H]1CN(C(=O)c2ccc(NC(=O)c3cc(O[C@H](C)c4c(Cl)ccc(F)c4Cl)c(N)nn3)cc2)C[C@H](C)N1` [Crystalline form A], the moisture removed ([2]; 0% RH drying stage) is reported as “about 1.5%”, the moisture absorbed ([2]; 0% RH-80% RH range) is reported as “about 2.3%” and the moisture removed ([2]; desorption stage, 30% RH) is reported as 1.5%. The weight change [2] was “about 2.3%”, the “change of the weight” value ([2]; range of 30-80% RH) was “less than 2%” and the solubility [4] was 20 to 100 mg/mL (≈ 35.6 to 178 mM). For the same molecule, the “change in crystalline form” value ([1]; 25° C.-60% RH for 10 days) was “no change in crystalline form”, the “change in crystalline form” value ([1]; 40° C.-75% RH for 10 days) was “no change in crystalline form” and the “change in crystalline form” value ([1]; 80° C. for 24 hours) was “no change in crystalline form”. The “absorption in vivo compared with the free base amorphis” value ([5]; 50 mg/kg) was “higher absorption in vivo”, the AUC(0-t) [5, 6] was 11600 ng·h/mL and the Cmax [5, 6] was 1440 ng/mL. The Tmax [5, 6] was 2.67 h.
In the case of `C[C@@H]1CN(C(=O)c2ccc(NC(=O)c3cc(O[C@H](C)c4c(Cl)ccc(F)c4Cl)c(N)nn3)cc2)C[C@H](C)N1` [Crystalline form D], the “change in crystalline form” value ([1]; dried at room temperature or dried in vacuum at room temperature) is reported as “transformed into Crystalline form B”.
In the case of `C[C@@H]1CN(C(=O)c2ccc(NC(=O)c3cc(O[C@H](C)c4c(Cl)ccc(F)c4Cl)c(N)nn3)cc2)C[C@H](C)N1` [Crystalline form B], the moisture absorbed ([2]; 10% RH in the adsorption stage) is reported as “about 4%”, the weight change [2] is reported as “about 2.3%” and the change of weight ([2]; range of 10-80% RH) is reported as “less than 2%”. The moisture removed ([2]; under 10% RH) was “about 4%”, the “change in crystalline form” value ([1]; 25° C.-60% RH for 10 days) was “no change in crystalline form” and the “change in crystalline form” value ([1]; 40° C.-75% RH for 10 days) was “no change in crystalline form”. The “change in crystalline form” value ([1]; 80° C. for 24 hours) was “no change in crystalline form”.
